The values below come from patent US20140142055A1, “METHODS OF TREATING RECURRENT MEIBOMIAN GLANDS DISORDER AND THEREBY DECREASING THE FREQUENCY OF RECURRENCE” (INSITE VISION CORPORATION, priority 2011, published 2014).

This data set is described as follows: Release of fluorometholone from the gelled aqueous polymer suspension in the rabbit eye, measured in the aqueous humor. To be noted: topical sustained-release aqueous suspension of lightly cross-linked carboxyl-containing polymer. The class given is in vivo. As for the experimental part: The viscous gels that result from fluid eye drops delivered by means of the aqueous suspensions have residence times in the eye ranging from about 2 to about 12 hours, e.g., from about 3 to about 6 hours. The active ingredients contained in these ophthalmically acceptable vehicles can be released from the gels at rates that depend on such factors as the active ingredient itself and its physical form, the extent of drug loading and the pH of the system, as well as on any drug delivery adjuvants, such as ion exchange resins compatible with the ocular surface, which can also be present.

Consider `CC(=O)[C@@]1(O)CC[C@H]2[C@@H]3C[C@H](C)C4=CC(=O)C=C[C@]4(C)[C@@]3(F)[C@@H](O)C[C@@]21C` [fluorometholone], for which the “release rates in the rabbit eye, as measured by fluorometholone contained in the aqueous humor” value was “in excess of four hours”.
